Test results reported in ChEMBL document CHEMBL1157994, “Three new metabolites from marine-derived fungi of the genera coniothyrium and microsphaeropsis” (J Nat Prod, 1999).
Activity calls are given as the source filed them. No cut-off for these calls is given here.

How the values were obtained:
Format in all cases: functional, organism-based
Priestia megaterium = assay: […] activity against Bacillus megaterium at 50 ug by agar diffusion test
[1] = tested on: Aspergillus pseudoglaucus; assay: Antifungal activity against Eurotium repens at 50 ug by agar diffusion test
Microbotryum violaceum = assay: Antifungal activity against Ustilago violacea at 50 ug by agar diffusion test
Mycotypha microspora = assay: Antifungal activity against Mycotypha microspora at 50 ug by agar diffusion test

SMILES	Activity (Priestia megaterium)	Activity [1]	Activity (Microbotryum violaceum)	Activity (Mycotypha microspora)
OCc1ccco1	Active	–	–	–
CO[C@]12C=C3C=CC(=O)[C@@H](C)[C@@]3(C)C[C@@]1(O)[C@H](C)CO2	–	Active	Active	–
COc1cc2c(c(O)c1Cl)C(=O)O[C@H](C)C2	–	Active	–	–
CC(=O)[C@@H](C)c1cc(O)cc(O)c1	–	–	Active	Active
C[C@H]1OC(=O)c2c(O)cccc2[C@@H]1O	–	–	Active	–
COc1cc(O)c2c(c1)C[C@@H](C)OC2=O	–	Active	–	–
C[C@H]1OC(=O)c2c(O)cccc2[C@H]1O	–	Active	Active	–
O=C1CCC(O)c2cccc(O)c21 (stereo not drawn)	–	Active	Active	–
C[C@@H]1Cc2cccc(O)c2C(=O)O1	–	Active	–	–
